Consider 13 compounds from ChEMBL document CHEMBL2380250, “Novel VEGFR-2 kinase inhibitors identified by the back-to-front approach” (Bioorg Med Chem Lett, 2013).

The test system of one data set is HUVEC. Briefly: Cytotoxicity against HUVEC by MTT assay. To be noted: Homo sapiens. On the technique in general: Tetrazolium assays rely on reduction of a dye to a coloured formazan, in cell work by metabolically active cells.
The target of data set [1] is Platelet-derived growth factor receptor beta (Homo sapiens) (UniProt P09619). Description: Inhibition of human recombinant PDGFR-beta expressed in insect cells using Ulight-Poly GAT[EAY(1:1:1)] as substrate at 1 uM after 15 to 60 mins by fluorescence assay.
Sequence of Platelet-derived growth factor receptor beta (Homo sapiens) (P09619 whole entry): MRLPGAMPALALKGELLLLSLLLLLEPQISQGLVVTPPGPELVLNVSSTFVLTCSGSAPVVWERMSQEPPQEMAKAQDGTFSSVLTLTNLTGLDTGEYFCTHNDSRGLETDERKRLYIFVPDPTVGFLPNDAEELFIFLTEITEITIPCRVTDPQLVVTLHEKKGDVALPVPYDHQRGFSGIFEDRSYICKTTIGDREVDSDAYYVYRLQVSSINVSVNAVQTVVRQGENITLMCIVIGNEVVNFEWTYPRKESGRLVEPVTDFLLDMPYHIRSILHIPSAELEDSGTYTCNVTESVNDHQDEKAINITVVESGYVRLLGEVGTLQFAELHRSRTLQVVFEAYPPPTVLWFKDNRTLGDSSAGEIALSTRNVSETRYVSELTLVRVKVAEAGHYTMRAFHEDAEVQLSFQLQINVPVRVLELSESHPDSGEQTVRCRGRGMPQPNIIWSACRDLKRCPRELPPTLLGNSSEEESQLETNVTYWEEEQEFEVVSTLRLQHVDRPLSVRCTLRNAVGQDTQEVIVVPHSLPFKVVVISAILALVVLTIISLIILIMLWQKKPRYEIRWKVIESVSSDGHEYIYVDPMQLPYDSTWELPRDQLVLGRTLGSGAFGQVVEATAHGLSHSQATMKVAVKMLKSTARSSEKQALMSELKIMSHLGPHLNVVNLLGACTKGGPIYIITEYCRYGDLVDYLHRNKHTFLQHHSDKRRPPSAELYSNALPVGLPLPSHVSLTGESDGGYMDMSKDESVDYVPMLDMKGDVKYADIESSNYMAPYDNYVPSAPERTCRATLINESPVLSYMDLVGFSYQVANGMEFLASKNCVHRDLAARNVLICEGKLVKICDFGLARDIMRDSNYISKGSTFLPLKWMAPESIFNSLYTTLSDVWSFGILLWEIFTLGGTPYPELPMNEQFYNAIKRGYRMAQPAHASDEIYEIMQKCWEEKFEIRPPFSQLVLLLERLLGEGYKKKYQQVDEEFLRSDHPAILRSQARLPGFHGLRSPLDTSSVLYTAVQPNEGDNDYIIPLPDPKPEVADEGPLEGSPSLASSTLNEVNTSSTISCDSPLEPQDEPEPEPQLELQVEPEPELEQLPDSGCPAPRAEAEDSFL
Data set [2] concerns the target Epidermal growth factor receptor (Homo sapiens) (UniProt P00533). Description: Inhibition of human recombinant EGFR expressed in insect cells using Ulight-CAGAGAIETDKEYYTVKD as substrate at 1 uM after 15 to 60 mins by fluorescence assay.
Data set [3] in a line: Cytotoxicity against human H460 cells assessed as growth inhibition by MTT assay. The class given is cell-based. The conditions noted are these: NCI-H460.
Data set [4] has as its target Vascular endothelial growth factor receptor 2 (Homo sapiens, UniProt P35968). Description: Inhibition of human recombinant VEGFR2 expressed in insect cells using Ulight-CAGAGAIETDKEYYTVKD as substrate after 15 to 60 mins by fluorescence assay.
A further data set concerns HepG2. Description: Cytotoxicity against human HepG2 cells assessed as growth inhibition by MTT assay. In kind it is cell-based.
The test system of the next data set is MCF7. Description: Cytotoxicity against human MCF7 cells assessed as growth inhibition by MTT assay. The class given is cell-based.
In the next data set the test system is EA.hy 926. Briefly: Antiangiogenic activity in VEGF-stimulated human EAhy926 cells assessed as inhibition of tube formation at 0.3 uM measured at 24 hrs. The class given is functional, cell-based.
Another data set has as its system HeLa. Briefly: Cytotoxicity against human HeLa cells assessed as growth inhibition by MTT assay. In kind it is cell-based.
Data set [5] can be described thus: Cytotoxicity against human EAhy926 cells assessed as growth inhibition by MTT assay. In kind it is cell-based. To be noted: EA.hy 926.
Data set [6] can be described thus: Ratio of cytotoxicity against human EAhy926 cells to antiangiogenic activity in VEGF-stimulated human EAhy926 cells. The class given is toxicity, cell-based.

The source made the active and inactive calls. The calls are words filed in the database; no cut-off is given here.

One may read the IC50 as the midpoint of a concentration-inhibition curve.

Sequence of Epidermal growth factor receptor (Homo sapiens) (P00533 whole entry): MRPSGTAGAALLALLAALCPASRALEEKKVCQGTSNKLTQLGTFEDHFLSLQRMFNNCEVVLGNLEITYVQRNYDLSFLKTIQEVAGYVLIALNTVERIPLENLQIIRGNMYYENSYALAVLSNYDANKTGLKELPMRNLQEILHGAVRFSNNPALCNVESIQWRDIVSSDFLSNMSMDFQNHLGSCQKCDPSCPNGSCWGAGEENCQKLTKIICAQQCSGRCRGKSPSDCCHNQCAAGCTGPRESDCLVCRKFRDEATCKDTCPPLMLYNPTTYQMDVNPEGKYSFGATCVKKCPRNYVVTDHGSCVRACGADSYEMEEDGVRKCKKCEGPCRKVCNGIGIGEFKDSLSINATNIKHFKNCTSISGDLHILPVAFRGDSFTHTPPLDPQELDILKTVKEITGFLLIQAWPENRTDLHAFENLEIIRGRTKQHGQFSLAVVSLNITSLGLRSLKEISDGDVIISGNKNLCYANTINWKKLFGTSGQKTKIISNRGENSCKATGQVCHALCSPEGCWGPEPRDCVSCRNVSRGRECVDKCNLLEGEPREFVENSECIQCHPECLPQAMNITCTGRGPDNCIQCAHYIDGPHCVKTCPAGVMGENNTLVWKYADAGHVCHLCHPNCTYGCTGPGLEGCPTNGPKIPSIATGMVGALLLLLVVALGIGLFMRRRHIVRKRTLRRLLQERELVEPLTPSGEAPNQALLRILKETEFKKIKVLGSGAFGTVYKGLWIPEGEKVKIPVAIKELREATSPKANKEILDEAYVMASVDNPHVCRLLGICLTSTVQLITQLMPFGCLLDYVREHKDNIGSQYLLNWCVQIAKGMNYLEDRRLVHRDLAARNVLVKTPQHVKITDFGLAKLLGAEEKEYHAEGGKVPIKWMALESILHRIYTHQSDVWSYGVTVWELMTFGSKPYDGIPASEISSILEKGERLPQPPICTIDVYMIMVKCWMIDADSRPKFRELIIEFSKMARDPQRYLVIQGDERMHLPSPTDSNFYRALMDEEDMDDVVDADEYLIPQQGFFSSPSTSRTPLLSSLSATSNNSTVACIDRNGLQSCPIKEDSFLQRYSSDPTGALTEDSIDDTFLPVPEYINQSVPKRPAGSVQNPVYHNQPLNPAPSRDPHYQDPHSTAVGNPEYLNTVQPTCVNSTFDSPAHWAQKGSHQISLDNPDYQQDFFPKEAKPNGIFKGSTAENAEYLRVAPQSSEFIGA
Sequence of Vascular endothelial growth factor receptor 2 (P35968 whole entry): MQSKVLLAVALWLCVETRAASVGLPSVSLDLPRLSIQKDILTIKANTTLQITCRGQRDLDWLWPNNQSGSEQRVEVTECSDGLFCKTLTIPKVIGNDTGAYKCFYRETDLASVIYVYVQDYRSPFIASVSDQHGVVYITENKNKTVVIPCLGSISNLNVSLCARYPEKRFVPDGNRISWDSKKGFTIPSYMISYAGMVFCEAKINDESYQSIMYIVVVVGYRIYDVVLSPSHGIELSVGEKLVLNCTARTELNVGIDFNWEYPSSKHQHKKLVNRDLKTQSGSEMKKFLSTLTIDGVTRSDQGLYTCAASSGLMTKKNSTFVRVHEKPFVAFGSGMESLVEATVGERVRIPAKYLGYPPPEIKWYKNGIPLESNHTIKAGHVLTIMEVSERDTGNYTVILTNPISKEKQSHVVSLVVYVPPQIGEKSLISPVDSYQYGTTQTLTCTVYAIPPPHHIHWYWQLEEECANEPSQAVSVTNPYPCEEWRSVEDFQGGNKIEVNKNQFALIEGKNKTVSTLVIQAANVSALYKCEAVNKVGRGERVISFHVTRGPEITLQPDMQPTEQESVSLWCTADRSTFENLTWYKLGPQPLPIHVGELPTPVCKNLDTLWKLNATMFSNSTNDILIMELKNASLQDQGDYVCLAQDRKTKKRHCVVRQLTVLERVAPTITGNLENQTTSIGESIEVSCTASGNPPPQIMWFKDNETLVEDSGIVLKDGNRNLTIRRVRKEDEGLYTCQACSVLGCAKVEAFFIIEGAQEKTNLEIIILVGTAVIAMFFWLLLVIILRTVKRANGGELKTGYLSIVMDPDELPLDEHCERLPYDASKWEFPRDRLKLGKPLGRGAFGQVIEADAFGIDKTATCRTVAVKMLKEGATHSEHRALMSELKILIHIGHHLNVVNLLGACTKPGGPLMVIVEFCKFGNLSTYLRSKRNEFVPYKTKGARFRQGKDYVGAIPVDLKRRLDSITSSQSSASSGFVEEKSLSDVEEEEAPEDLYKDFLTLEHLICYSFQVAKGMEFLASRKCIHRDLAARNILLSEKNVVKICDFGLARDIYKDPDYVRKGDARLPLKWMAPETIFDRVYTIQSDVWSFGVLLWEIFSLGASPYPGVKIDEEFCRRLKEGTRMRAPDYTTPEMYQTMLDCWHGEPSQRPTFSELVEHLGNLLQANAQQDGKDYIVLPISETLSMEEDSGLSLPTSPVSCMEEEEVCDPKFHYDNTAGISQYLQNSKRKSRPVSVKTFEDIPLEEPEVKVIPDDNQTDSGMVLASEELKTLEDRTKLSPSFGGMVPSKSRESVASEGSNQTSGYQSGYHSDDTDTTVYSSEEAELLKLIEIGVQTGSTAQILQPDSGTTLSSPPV

For the compound `CNC(=O)c1cc(Oc2ccc(NC(=O)Nc3ccc(Cl)c(C(F)(F)F)c3)cc2)ccn1` [SORAFENIB], the half-maximal inhibitory concentration (IC50) in the data set with HUVEC is 4 µM.

With `O=C(NCc1cn(-c2ccc3ncsc3c2)nn1)Nc1cccc(CCl)c1`, the inhibition result in data set [1] was “inactive”. Also, the inhibition result in [2] is “Active”.

Regarding `O=C(NCc1cn(-c2ccc(S(=O)(=O)N3CCOCC3)cc2)nn1)Nc1cccc(CCl)c1`, in data set [1], the inhibition entry is “inactive”. For the same compound, the inhibition entry in data set [2] was “Active”.

As for `O=C(NCc1cn(-c2ccc3[nH]ncc3c2)nn1)Nc1cccc(CCl)c1`, in data set [1], the inhibition result was “inactive”. Moreover, in data set [2], the inhibition result is “Active”.

As to `NS(=O)(=O)c1cccc(-n2cc(CNC(=O)Nc3cccc(CCl)c3)nn2)c1`, in [1], the inhibition entry was “inactive”. Further, in [2], the inhibition result was “Active”.

On to `COC(=O)c1ccc(-n2cc(CNC(=O)Nc3cccc(CCl)c3)nn2)cc1`, for which, in data set [1], the inhibition result is “inactive”. The inhibition result in data set [2] is “Active”.

Regarding `O=C(NCc1cn(-c2ccc3cn[nH]c3c2)nn1)Nc1cccc(CCl)c1`, the half-maximal inhibitory concentration (IC50) in data set [3] was 71 µM; in data set [4], 0.56 µM; with HepG2 it was above 100 µM; in the data set on MCF7, 21 µM; in the data set on HeLa it was 33 µM; in data set [5] it was 4 µM. In addition, in [1], the inhibition entry was “inactive”. Also, the inhibition entry (in the data set with EA.hy 926; in data set [2]) was “Active” each time. In addition, the selectivity ratio in data set [6] is 13.

With `NS(=O)(=O)c1ccc(-n2cc(CNC(=O)Nc3cccc(CCl)c3)nn2)cc1`, the inhibition entry in data set [1] was “inactive”. Moreover, in [2], the inhibition entry was “Active”.

On to `O=C(NCc1cn(-c2ccc3scnc3c2)nn1)Nc1cccc(CCl)c1`, for which the inhibition result in data set [1] was “inactive”. Moreover, the inhibition entry in data set [2] is “Active”.

Consider `C#CCNC(=O)Nc1cccc(CCl)c1`, for which the inhibition result in [1] was “inactive”. In addition, in data set [2], the inhibition entry was “Active”.

As to `CC(=O)N1CCc2ccc(-n3cc(CNC(=O)Nc4cccc(CCl)c4)nn3)cc21`, the inhibition result in data set [1] is “inactive”. Also, the inhibition entry in data set [2] was “Active”.

On to `O=C(NCc1cn(CCN2C(=O)c3ccccc3C2=O)nn1)Nc1cccc(CCl)c1`, for which the inhibition entry in data set [1] is “inactive”. Moreover, in data set [2], the inhibition result is “Active”.

For `O=C(NCc1cn(Cc2cc(=O)[nH]c3ccccc23)nn1)Nc1cccc(CCl)c1`, the inhibition result in data set [1] is “inactive”. Besides, the inhibition result in data set [2] is “Active”.
